Assay: refractive index (Na D-line) (dimensionless); xn = mol fraction of the nth substance listed
Conditions: 101 kPa, Liquid, Standard Abbe refractometry

CCCCOC(C)=O [butyl ethanoate] + CCc1ccccc1
refractive index
Conditions | 293.15 K | 298.15 K | 303.15 K | 308.15 K | 313.15 K
x1 = 0.0544 | 1.48984 | 1.48716 | 1.48442 | 1.48172 | 1.47899
x1 = 0.1008 | 1.48485 | 1.48219 | 1.47946 | 1.47673 | 1.47401
x1 = 0.1488 | 1.4796 | 1.47693 | 1.47418 | 1.47152 | 1.46884
x1 = 0.2024 | 1.47382 | 1.47116 | 1.46843 | 1.4658 | 1.4631
x1 = 0.254 | 1.46832 | 1.46568 | 1.46302 | 1.46037 | 1.45768
x1 = 0.2929 | 1.46417 | 1.46155 | 1.4589 | 1.45623 | 1.45354
x1 = 0.3526 | 1.45799 | 1.45536 | 1.45263 | 1.45 | 1.44729
x1 = 0.3989 | 1.45314 | 1.45054 | 1.44782 | 1.44526 | 1.44253
x1 = 0.4448 | 1.44842 | 1.44582 | 1.44315 | 1.44053 | 1.43785
x1 = 0.5021 | 1.44254 | 1.43999 | 1.43733 | 1.43472 | 1.43207
x1 = 0.5505 | 1.43764 | 1.43508 | 1.43242 | 1.42983 | 1.4272
x1 = 0.6041 | 1.43221 | 1.42967 | 1.42703 | 1.42449 | 1.42191
x1 = 0.6456 | 1.42806 | 1.42552 | 1.42292 | 1.42036 | 1.41779
x1 = 0.7003 | 1.42266 | 1.42015 | 1.41759 | 1.41507 | 1.41252
x1 = 0.7555 | 1.41729 | 1.41481 | 1.41224 | 1.40974 | 1.4072
x1 = 0.8016 | 1.41282 | 1.41035 | 1.40784 | 1.40537 | 1.40283
x1 = 0.8511 | 1.40813 | 1.40566 | 1.4032 | 1.40068 | 1.39815
x1 = 0.9009 | 1.40339 | 1.40097 | 1.39849 | 1.39597 | 1.39349
x1 = 0.9505 | 1.39875 | 1.39633 | 1.39386 | 1.39139 | 1.38895

CCCCOC(C)=O [butyl ethanoate] + Cc1ccc(C)cc1
refractive index
Conditions | 293.15 K | 298.15 K | 303.15 K | 308.15 K | 313.15 K
x1 = 0.0494 | 1.49045 | 1.48779 | 1.48504 | 1.48238 | 1.47977
x1 = 0.1014 | 1.48487 | 1.48216 | 1.4794 | 1.47685 | 1.47409
x1 = 0.1494 | 1.4798 | 1.4771 | 1.47436 | 1.47174 | 1.46903
x1 = 0.2012 | 1.47424 | 1.47153 | 1.46878 | 1.46623 | 1.46356
x1 = 0.248 | 1.46931 | 1.46663 | 1.46387 | 1.46134 | 1.45863
x1 = 0.3077 | 1.46309 | 1.46041 | 1.45768 | 1.45514 | 1.45247
x1 = 0.3519 | 1.45847 | 1.45583 | 1.45312 | 1.45058 | 1.44789
x1 = 0.404 | 1.45307 | 1.45044 | 1.44776 | 1.44522 | 1.44259
x1 = 0.4519 | 1.44815 | 1.44554 | 1.44286 | 1.44032 | 1.4377
x1 = 0.4999 | 1.44322 | 1.44061 | 1.43796 | 1.43542 | 1.43282
x1 = 0.5505 | 1.43808 | 1.4355 | 1.43288 | 1.43034 | 1.42775
x1 = 0.5991 | 1.43317 | 1.4306 | 1.42798 | 1.42546 | 1.42286
x1 = 0.6518 | 1.42787 | 1.42531 | 1.42272 | 1.42021 | 1.41762
x1 = 0.6993 | 1.42315 | 1.42063 | 1.41806 | 1.41551 | 1.41295
x1 = 0.749 | 1.41825 | 1.41572 | 1.41319 | 1.41066 | 1.40812
x1 = 0.799 | 1.41333 | 1.41087 | 1.40834 | 1.40581 | 1.40327
x1 = 0.8519 | 1.4083 | 1.40578 | 1.40327 | 1.40076 | 1.39826
x1 = 0.8979 | 1.40384 | 1.40137 | 1.39885 | 1.39641 | 1.3939
x1 = 0.9489 | 1.39894 | 1.39654 | 1.39405 | 1.39155 | 1.3891

CCCCOC(C)=O [butyl ethanoate] + Cc1ccccc1
refractive index
Conditions | 293.15 K | 298.15 K | 303.15 K | 308.15 K | 313.15 K
x1 = 0.0499 | 1.49044 | 1.48757 | 1.48472 | 1.4818 | 1.47891
x1 = 0.0998 | 1.48428 | 1.48149 | 1.47861 | 1.47573 | 1.47285
x1 = 0.15 | 1.47815 | 1.47538 | 1.47251 | 1.46966 | 1.46684
x1 = 0.2001 | 1.47222 | 1.46948 | 1.46668 | 1.46382 | 1.46101
x1 = 0.2502 | 1.46644 | 1.46358 | 1.46079 | 1.45814 | 1.45535
x1 = 0.2985 | 1.461 | 1.45826 | 1.45547 | 1.45277 | 1.4501
x1 = 0.3447 | 1.4559 | 1.45318 | 1.45041 | 1.44769 | 1.44494
x1 = 0.4011 | 1.4498 | 1.44705 | 1.4443 | 1.44161 | 1.4389
x1 = 0.4468 | 1.44504 | 1.44235 | 1.4397 | 1.43691 | 1.43423
x1 = 0.4994 | 1.43964 | 1.43696 | 1.4343 | 1.43157 | 1.42895
x1 = 0.5524 | 1.4343 | 1.43166 | 1.42902 | 1.42632 | 1.42368
x1 = 0.5999 | 1.42964 | 1.42695 | 1.42432 | 1.42164 | 1.41904
x1 = 0.6517 | 1.42468 | 1.42207 | 1.41943 | 1.41676 | 1.41415
x1 = 0.7 | 1.42017 | 1.41756 | 1.41498 | 1.41233 | 1.40974
x1 = 0.7516 | 1.41545 | 1.41287 | 1.41026 | 1.40773 | 1.40511
x1 = 0.7972 | 1.41141 | 1.40888 | 1.40629 | 1.40371 | 1.4012
x1 = 0.8404 | 1.4076 | 1.40508 | 1.4025 | 1.39992 | 1.39741
x1 = 0.8971 | 1.40273 | 1.40025 | 1.39777 | 1.39518 | 1.39265
x1 = 0.9449 | 1.39881 | 1.3963 | 1.39384 | 1.39133 | 1.38884
